Measured values: ChEMBL document CHEMBL1141634, “Cathepsin B inhibitory activities of phthalates isolated from a marine Pseudomonas strain” (Bioorg Med Chem Lett, 2008)

Tests used:
B16-F10 = experiment: Cytotoxicity against mouse B16F10 cells by MTT assay; assay type: functional
Cathepsin B [1] = target: Cathepsin B (Mus musculus, UniProt P10605); experiment: Inhibition of cathepsin B in mouse B16F10 cells; assay type: cell-based, B16-F10
Cathepsin B [2] = target: Cathepsin B (Homo sapiens, UniProt P07858); experiment: Inhibition of cathepsin B

Cathepsin B (Mus musculus, UniProt P10605), sequence (P10605 whole entry): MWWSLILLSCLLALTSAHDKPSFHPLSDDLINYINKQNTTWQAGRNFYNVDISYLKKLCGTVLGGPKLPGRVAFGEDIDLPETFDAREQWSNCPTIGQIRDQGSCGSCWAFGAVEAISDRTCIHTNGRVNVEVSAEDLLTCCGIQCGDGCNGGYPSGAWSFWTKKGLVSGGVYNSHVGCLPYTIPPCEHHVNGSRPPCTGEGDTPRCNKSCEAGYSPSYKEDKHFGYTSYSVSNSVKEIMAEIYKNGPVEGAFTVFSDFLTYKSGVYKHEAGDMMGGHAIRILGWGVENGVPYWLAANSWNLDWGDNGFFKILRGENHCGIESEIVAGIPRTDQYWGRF

| SMILES | Activity (B16-F10) | IC50 (Cathepsin B [1]) | IC50 (Cathepsin B [2]) |
| --- | --- | --- | --- |
| CCCCOC(=O)c1ccccc1C(=O)OCCCC [DIBUTYL PHTHALATE] | 9.45% | 230 µM | 420 µM |
| CCCC[C@@H](CC)COC(=O)c1ccccc1C(=O)OC[C@@H](CC)CCCC [BIS(2-ETHYLHEXYL)PHTHALATE] | 7.34% | 140 µM | 380 µM |
